One data set deals with Listeria monocytogenes. In words: Clearance of systemic Listeria monocytogenes infection. As to conditions: for Log colony count/gm spleen tissue in dexamethasone group (2 mg/kg): 72 hours post-infection, Lewis rats. The data set is classed as in vivo. How it is done: Two separate bacterial clearance studies were conducted. […] Colony counts (CFU) per gram of spleen tissues were determined at necropsy, 72 hours post-infection and expressed as the log of the colony count (e.g., 100000 CFU=log 5) per gram of tissue. Colony count measurements provide an indication of the extent of phagocytosis of bacteria by splenic neutrophils and macrophages.

Another data set relates to human neutrophils. Kind of data set: Neutrophil chemotaxis, Transwell assay. The data set is classed as cell-based. As to conditions: no inhibitor, read-out: concentration of chemoattractant necessary to support half-maximal migration. How it is done: It is known that distinct signal transduction pathways are utilized by host-derived versus bacteria-produced chemoattractants [Heit, J. Cell Biol., 159:91-102 (2002)]. To determine whether specific chemotactic agents preferentially rely on PI3Kδ in order to promote directed cell migration, the effect of inhibiting PI3Kδ on the ability of neutrophils to undergo chemotaxis was examined using a Transwell™ assay system.
Neutrophil chemotaxis experiments were conducted as described [Roth et al., J. Immunol. Methods, 188:97-116 (1995)]. Briefly, purified human neutrophils were incubated with DMSO (0.3% v/v) or an inhibitor in accordance with the invention reconstituted in DMSO (0.3%) for 20 minutes at room temperature. Cells were added to bare filter inserts (Transwell™ 5 μm pore size; Corning Costar, Cambridge, Mass.), that were placed into wells containing chemoattractants or control medium of a Ultra low 24-well cluster plate, and incubated for 1 hour at 37° C. in a 5% CO2 humidified environment. The number of neutrophils that migrated into the bottom well was determined by FACScan (Becton Dickinson, San Jose, Calif.). Results were expressed as percent neutrophil migration relative to the control (medium without inhibitor).
Dose response curves were generated to determine the concentrations of each chemoattractant, both host and bacterial-derived, necessary to support half-maximal migration. […] Methods, 137:37-46 (1991)].

Data set [1] has as its system neutrophils. Kind of data set: Superoxide production by activated neutrophils (WST-1). It counts as cell-based. As to conditions: no inhibitor; read-out: agonist concentration representing half-maximal production of superoxide anions. A general note: Formazan colour is commonly taken as a measure of viable cells.
Data set [2] concerns neutrophils. Kind of data set: Neutrophil elastase release (exocytosis) assay. As to conditions: no inhibitor; read-out: agonist concentration representing half-maximal release of elastase. It counts as cell-based.
Procedure: Microtiter assays for the detection of elastase released from purified neutrophils (1.1×10^5 per well in PBS) were performed in the absence or presence of an inhibitor in accordance with the invention or LY294002 on fibrinogen-coated plates [Mulligan, et al., Proc. Natl. Acad. Sci. U.S.A., 90:11523-11527 (1993)]. […] The samples were centrifuged and 90 μl of the supernatant was transferred to another plate containing 10 μl of methoxysuccinyl-alanylalanylprolylvalyl-p-nitroanilide (10 mM, Sigma). Absorbance at 410 nm was measured at one hour as described above. Results are expressed as the percentage elastase activity relative to the control (medium without inhibitor).

This note sets out measurements from patent publication US20050043239A1, “Methods of inhibiting immune responses stimulated by an endogenous factor” (priority 2003, published 2005).

“Also recorded” adds a separate entry of the source.

Turning to `C[C@@H]1C[C@H]2[C@@H]3CCC4=CC(=O)C=C[C@]4(C)[C@@]3(F)[C@@H](O)C[C@]2(C)[C@@]1(O)C(=O)CO` [dexamethasone], the “Log colony count/gm spleen tissue in dexamethasone group (2 mg/kg)” value in the data set on Listeria monocytogenes (Clearance Experiment 1, 2 mg/kg BID PO) is “count, >5 log colony count/gm spleen tis”; in the data set on Listeria monocytogenes (Clearance Experiment 2, 2 mg/kg), “hours, >10 log colony count/gm spleen tis”. In the data set with Listeria monocytogenes (second experiment, dexamethasone 2 mg/kg), the “lethality / condition of animals at 72 hours” value is “lethality was observed; also recorded: Moribund at 72”.

For the molecule interleukin 8 [IL-8], in the data set on human neutrophils, the EC50 came out at 0.35 nM.

Regarding `CCCCC/C=C\C[C@@H](O)/C=C/C=C/C=C\[C@@H](O)CCCC(=O)O` [LTB4, leukotriene B4], the EC50 in the data set with human neutrophils was 0.25 nM; in the data set on neutrophils [1], 2 nM; with neutrophils [2] it was 2 nM.

B1: complement factor C5a (protein, UniProt P01031 678-751, looked up)
C5a anaphylatoxin: TLQKKIEEIAAKYKHSVVKKCCYDGACVNNDETCEQRAARISLGPRCIKAFTECCVVASQLRANISHKDMQLGR
modifications: C5a anaphylatoxin
notes: host-derived chemoattractant
Turning to B1, in the data set with human neutrophils, the EC50 worked out at 0.37 nM.
